PMC8601423 (PLoS ONE, 2021)
Several values for one entry are separate records, joined by “and”; a condition that tells them apart may be missing. Equal values may be shown once.

How the values were obtained:
[1] = system: IL-1β mRNA, human coronary microvascular endothelial cells; assay type: cell-based
[2] = system: MCP-1 mRNA, human coronary microvascular endothelial cells; assay type: cell-based
[3] = system: VCAM mRNA, human coronary microvascular endothelial cells; assay type: cell-based
[4] = system: IL-6 mRNA, human coronary microvascular endothelial cells; assay type: cell-based
purified human ACE2-Fc = target: T1, purified human ACE2-Fc (Homo sapiens, UniProt Q9BYF1); experiment: biochemical; assay type: binding
T1 construct: purified recombinant human ACE2-Fc (Q18 –S740, peptidase domain) protein; purchased GenScript
T1 sequence (Q9BYF1 18-740): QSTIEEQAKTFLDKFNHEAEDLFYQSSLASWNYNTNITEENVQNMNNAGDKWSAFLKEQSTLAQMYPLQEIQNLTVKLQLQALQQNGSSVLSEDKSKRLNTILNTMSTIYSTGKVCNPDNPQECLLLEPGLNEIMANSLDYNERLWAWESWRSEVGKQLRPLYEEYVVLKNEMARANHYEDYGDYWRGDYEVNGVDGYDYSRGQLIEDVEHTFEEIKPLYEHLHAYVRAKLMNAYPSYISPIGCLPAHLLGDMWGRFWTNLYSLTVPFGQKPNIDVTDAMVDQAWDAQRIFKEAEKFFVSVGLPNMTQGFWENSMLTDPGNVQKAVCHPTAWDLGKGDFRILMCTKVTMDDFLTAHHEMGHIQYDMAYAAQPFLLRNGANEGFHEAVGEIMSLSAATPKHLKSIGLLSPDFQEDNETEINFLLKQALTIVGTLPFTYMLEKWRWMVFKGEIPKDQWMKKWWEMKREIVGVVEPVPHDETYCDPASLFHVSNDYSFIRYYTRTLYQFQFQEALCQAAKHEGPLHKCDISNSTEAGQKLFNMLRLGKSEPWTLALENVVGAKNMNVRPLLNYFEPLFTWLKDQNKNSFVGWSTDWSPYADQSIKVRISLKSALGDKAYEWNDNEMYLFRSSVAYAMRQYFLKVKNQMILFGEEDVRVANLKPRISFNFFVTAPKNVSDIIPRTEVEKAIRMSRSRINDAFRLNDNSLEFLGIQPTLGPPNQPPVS

[5] = system: SRBD internalisation in ACE2 expressing A549 cells; assay type: cell-based, human
[6] = system: SARS CoV-2 S-protein (Wuhan-Hu-1 strain, spike trimer) expressing PsV, HEK293T cells stably expressing human ACE2; assay type: cell-based, SARS-CoV-2 (Wuhan-Hu-1 strain)

Row | Compound | IL-1β mRNA expression, peptide alone [1] | S1 induced IL-1β mRNA expression, peptide pre-treated [1] | MCP-1 mRNA expression, peptide alone [2] | S1 induced MCP-1 mRNA expression, peptide pre-treated [2] | S1 induced VCAM mRNA expression, peptide pre-treated [3] | VCAM mRNA expression, peptide alone [3] | IL-6, MEAN [4] | IL-6 mRNA expression, peptide alone [4] | S1 induced IL-6 mRNA expression, peptide pre-treated [4] | Kd (purified human ACE2-Fc) [nM] | inhibition of SRBD internalisation (in words) [5] | inhibition of spike PsV cell entry (in words) ([6]; N = 3) | binding to ACE2 (in words) (purified human ACE2-Fc) | inhibition of spike PsV cell entry by soluble ACE2 (in words) [6]
1 | CC(=O)N[C@@H](CO)C(=O)N[C@@H](CCCCN)C(=O)N[C@H](C(=O)NCC(=O)NCC(=O)N[C@@H](CC(N)=O)C(=O)N[C@@H](Cc1ccc(O)cc1)C(=O)N[C@@H](CC(N)=O)C(=O)N[C@@H](Cc1ccc(O)cc1)C(=O)N[C@@H](CC(C)C)C(=O)N[C@@H](Cc1ccc(O)cc1)C(=O)N[C@@H](CCCNC(=N)N)C(=O)N[C@@H](CC(C)C)C(=O)N[C@@H](Cc1ccccc1)C(=O)N[C@@H](CCCNC(=N)N)C(=O)N[C@@H](CCCCN)C(N)=O)C(C)C [RBM1] | did not mimic S1 protein-induced inflammation | did not attenuate the S1 induced inflammatory response | did not mimic S1 protein-induced inflammation | did not attenuate the S1 induced inflammatory response | did not attenuate the S1 induced inflammatory response | did not mimic S1 protein-induced inflammation | 0.7896 and 1.445 | did not mimic S1 protein-induced inflammation | did not attenuate the S1 induced inflammatory response | 207 | marked, yet non-significant reduction | did not inhibit PsV cell entry |  | 
2 | Ac-NYGLQGSPFGYQETPYPFCNFVQYG-NH2 [RBM2A-Sc] |  |  |  |  |  |  | 0.966 and 1.58 |  |  |  | did not significantly inhibit SRBD-mediated internalisation |  | appeared to bind to ACE2 in a dose-dependent manner (Fig 4C) saturation of ACE2 binding was not achieved | 
3 | soluble ACE2 protein |  |  |  |  |  |  |  |  |  |  |  |  |  | completely blocked spike PsV cell entry
